In patent publication US20250319045A1, “TRANSETHOSOME-ENCAPSULATED AGENTS AND METHODS OF USE THEREOF” (Northwestern University, priority 2024, published 2025):

Assays:
[1] = Encapsulation efficiency and drug loading by HPLC after ultrafiltration; assay type: physicochemical; details: Z-Endoxifen in transethosomes
Description: After cooling the transethosomes to room temperature, the remaining volume was 10 ml. The total drug concentration was determined by HPLC using 20 μL demulsified samples. 200 μL samples were collected into a 30 kDa ultrafiltration tube, added 1 mL of 25% ethanol, ultrafiltrated at 5000 rpm, and the drug concentration of subnatant was determined by HPLC.
Encapsulation efficiency was evaluated by HPLC. HPLC was performed using a WondaSil® C-18-WR column (4.6×150 mm, 5 μm pore size). The mobile phase included an A phase and a B phase at a ratio (A:B) of 30:70. The A phase contained 10 mM ammonium formate in water: 10 mM ammonium formate in methanol. The B phase contained 10 mM ammonium formate in methanol at a ratio of 40:60. Samples were prepared as follows. The solvent was prepared by mixing 10 mM ammonium formate in a solution containing water and acetonitrile at a ratio of 1:1 (v/v). Z-Endoxifen was diluted in the solvent at a concentration gradient of 5, 10, 25, 50, and 80 μg/mL. Samples were injected into the column at a volume of 20 μL and were passed through the column at a flow rate of 0.8 mL/min at a temperate of 30° C. The detection wavelength was 243 nm.
The following equations were used in Table 1: […]

[2] = Local tolerance and dermal toxicity test, Draize scoring; details: after the 7th DNCB dose (third week), 0.05% in 95% ethanol

SMILES	Drug loading (%) [1]	Encapsulation efficiency (%) [1]	Erythema score (Draize) ([2]; 3 of 10 animals)	Erythema score (Draize) ([2]; remaining 7 animals)
CC/C(=C(\c1ccc(O)cc1)c1ccc(OCCNC)cc1)c1ccccc1 [Z-Endoxifen, (Z)-endoxifen]	4.77%	92.34%	–	–
O=[N+]([O-])c1ccc(Cl)c([N+](=O)[O-])c1 [DNCB, 1-chloro-2,4-dinitrobenzene]	–	–	2	1
